Data as given in patent US8067189B2, “Methods for determining sensitivity to vascular endothelial growth factor receptor-2 modulators by measuring the level of collagen type IV” (Bristol-Myers Squibb Company, priority 2005, dated 2011).

System: Collagen type IV
Test: Collagen type IV ELISA of blood (plasma) from cancer patients, clinical study CA182-002
Format: in vivo, human
Experimental: Blood samples (plasma) for ELISA analysis were obtained from Bristol-Myers Squibb Co. sponsored clinical study CA182-002, which is a phase I dose escalation study to determine the safety, pharmacokinetic, and pharmacodynamics of the example VEGFR-2 inhibitor in patients with advanced or metastatic solid tumors. Blood samples were drawn from patients at screening, pre-dose, and post-dose at 4 hours, Day 1, Day 8, Day 26, and end of treatment. Approximately 60 ml of blood was collected for the protocol specific sampling. Detailed instructions regarding the collection, processing, labeling, handling, storage, and shipment of the specimens were provided in the CA182-002 Laboratory Manual.
An ELISA method for the detection and measurement of Collagen Type IV and VE-Cadherin on human plasma or any biological sample where the proteins must be detected and measured is described. For collagen type IV ELISA, the kit was provided by Kamiya biomedical company (cat no. KT-035) and the principle method of the assay, a solid phase one-step sandwich ELISA, was as follows. Collagen Type IV in the sample was bound simultaneously by a solid phase monoclonal antibody and a monoclonal antibody-enzyme conjugate, each directed at a different antigenic site. […] After removing unbound enzyme-labeled antibody and samples, the plate was incubated with the enzyme substrate 3,3′,5,5′-tetramethylhylbenzidine (TMB). The resultant color development was directly proportional to the amount of collagen IV in the sample. The reaction was terminated by addition of acid and absorbance was measured at 450 nm. A standard curve was prepared from collagen type IV standard dilutions and collagen type IV samples concentration determined. For VE-Cadherin ELISA, the kit provided by Bender Medsystems (cat no. BMS253) was used and the principle method of the assay was as follows. An anti-VE-cadherin coating antibody was adsorbed onto the microwells. VE-cadherin present in the sample bound to antibodies adsorbed to the microwells; a biotin conjugated anti-VE-cadherin antibody was added and bound to VE-cadherin captured by the first antibody. Following incubation, unbound biotin conjugated anti-VE-cadherin was removed during a wash step. Streptavidin-HRP was added and bound to the biotin conjugated anti-VE-cadherin. Following incubation, unbound streptavidin-HRP was removed during a wash step and substrate solution reactive with HRP was added to the wells. A colored product was formed in proportion to the amount of VE-cadherin present in the sample. The reaction was terminated by addition of acid and absorbance was measured at 450 nm. A standard curve was prepared from VE-cadherin standard dilutions and VE-cadherin samples concentration determined.
Based on the pre-clinical studies, the Collagen type IV ELISA kit was examined as a potential molecular assay to monitor response and validate its expression on specimens obtained from cancer patients who received the example VEGFR-2 inhibitor. Biological samples from twelve cancer patients treated with the example VEGFR-2 inhibitor in protocol CA182002, which is a single agent dose escalation study, three patients each at 180 mg/day, 320 mg/day, 600 mg/day and 800 mg/day, were examined. Collagen Type IV blood levels were determined by an ELISA based assay for each patient at Day 0 (before therapy) and at Day 26 (after treatment). Collagen type IV levels increased on average by 24% at Day 26 in the 180 mg/day cohort; it increased on average only by 7% at Day 26 in the 320 mg/day cohort. In the 600 mg/day cohort, it was reduced on average by 26% at Day 26. In the 800 mg/day cohort, it was reduced only marginally, when compared to the 600 mg/day cohort, by 29% at Day 26.
Collagen type IV ELISA assays were also examined to see if collagen type IV was useful as a biomarker for clinical response to the example VEGFR-2 inhibitor. […] The reduction in collagen type IV blood levels correlated with clinical evidence of anti-tumor activity. […]

Cc1cc2c(F)c(Oc3ncnn4cc(OC[C@@H](C)OC(=O)[C@H](C)N)c(C)c34)ccc2[nH]1 [example VEGFR-2 inhibitor, [(1R),2S]-2-Aminopropionic acid 2-[4-(4-fluoro-2-methyl-1H-indol-5-yloxy)-5-methylpyrrolo[2,1-f][1,2,4]triazin-6-yloxy]-1-methylethyl ester]
Collagen type IV levels increased on average by (180 mg/day cohort, three patients, Day 26 vs Day 0): 24%
Collagen type IV levels increased on average by (320 mg/day cohort, three patients, Day 26 vs Day 0): 7%
Collagen type IV levels reduced on average by (600 mg/day cohort, three patients, Day 26 vs Day 0): 26%
Collagen type IV levels reduced by (800 mg/day cohort, three patients, Day 26 vs Day 0): 29%
reduction in collagen type IV levels (another patient, 600 mg/day, between Day 0 and Day 26, P=0.632): no significant reduction
collagen type IV blood levels reduced (one patient with ampulla of vater carcinoma, 600 mg/day, between Day 0 and Day 26, P=0.006): > 50%
